Laboratory results published in PubChem BioAssay AID2060883 (Molecular Pharmacology Branch, DTP, NCI, 2025).

Tested on: 843782-103-R-J1-PDC complex spheroid viability
Experiment: Anticancer human tumor 843782-103-R-J1-PDC patient-derived lung adenocarcinoma cell line growth inhibition [RAS]
Conditions: for IC50: curve of first compound; for viability, T/C: stronger effect = lower value
Summary of the method: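 Multi-cell-type spheroids: tumor cells plus HUVEC endothelial cells and mesenchymal stem cells. RAS-pathway inhibitors were combined with targeted agents, each dosed in half-log steps down from clinical Cmax, or from 10 microM when Cmax was unknown.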
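Note: viability read after seven days of compound exposure.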

Structure (SMILES): Nc1ccn(C2OC(CO)C(O)C2(F)F)c(=O)n1 (centres undefined) + CCn1c(-c2cc(N3CCN(C)CC3)cnc2C(C)OC)c2c3cc(ccc31)-c1csc(n1)CC(NC(=O)C1CC1C)C(=O)N1CCCC(N1)C(=O)OCC(C)(C)C2
- IC50 (second compound 0.000949 µM): 17.9 nM
- IC50 (second compound 0.003 µM): 11.5 nM
- IC50 (second compound 0.00949 µM): < 3.16 nM
- IC50 (second compound 0.03 µM): < 3.16 nM
- IC50 (second compound 0.0949 µM): < 3.16 nM
- IC50 (second compound 0.3 µM): < 3.16 nM
- viability, T/C (second compound 0.000949 µM, first compound 0.00316 µM): 83.4%
- viability, T/C (second compound 0.000949 µM, first compound 0.01 µM): 73.4%
- viability, T/C (second compound 0.000949 µM, first compound 0.0316 µM): 27.1%
- viability, T/C (second compound 0.000949 µM, first compound 0.1 µM): 3.62%
- viability, T/C (second compound 0.000949 µM, first compound 0.316 µM): 1.6%
- viability, T/C (second compound 0.000949 µM, first compound 1 µM): 2.63%
- viability, T/C (second compound 0.003 µM, first compound 0.00316 µM): 64.4%
- viability, T/C (second compound 0.003 µM, first compound 0.01 µM): 54%
- viability, T/C (second compound 0.003 µM, first compound 0.0316 µM): 20.3%
- viability, T/C (second compound 0.003 µM, first compound 0.1 µM): 3.76%
- viability, T/C (second compound 0.003 µM, first compound 0.316 µM): 1.56%
- viability, T/C (second compound 0.003 µM, first compound 1 µM): 1.61%
- viability, T/C (second compound 0.00949 µM, first compound 0.00316 µM): 37.1%
- viability, T/C (second compound 0.00949 µM, first compound 0.01 µM): 36.2%
- viability, T/C (second compound 0.00949 µM, first compound 0.0316 µM): 16.3%
- viability, T/C (second compound 0.00949 µM, first compound 0.1 µM): 5.56%
- viability, T/C (second compound 0.00949 µM, first compound 0.316 µM): 2.02%
- viability, T/C (second compound 0.00949 µM, first compound 1 µM): 1.82%
- viability, T/C (second compound 0.03 µM, first compound 0.00316 µM): 19%
- viability, T/C (second compound 0.03 µM, first compound 0.01 µM): 22.7%
- viability, T/C (second compound 0.03 µM, first compound 0.0316 µM): 15.8%
- viability, T/C (second compound 0.03 µM, first compound 0.1 µM): 7.32%
- viability, T/C (second compound 0.03 µM, first compound 0.316 µM): 2.39%
- viability, T/C (second compound 0.03 µM, first compound 1 µM): 1.81%
- viability, T/C (second compound 0.0949 µM, first compound 0.00316 µM): 15.9%
- viability, T/C (second compound 0.0949 µM, first compound 0.01 µM): 18.9%
- viability, T/C (second compound 0.0949 µM, first compound 0.0316 µM): 13.9%
- viability, T/C (second compound 0.0949 µM, first compound 0.1 µM): 11.8%
- viability, T/C (second compound 0.0949 µM, first compound 0.316 µM): 4.42%
- viability, T/C (second compound 0.0949 µM, first compound 1 µM): 2.61%
- viability, T/C (second compound 0.3 µM, first compound 0.00316 µM): 14.3%
- viability, T/C (second compound 0.3 µM, first compound 0.01 µM): 16.6%
- viability, T/C (second compound 0.3 µM, first compound 0.0316 µM): 16.6%
- viability, T/C (second compound 0.3 µM, first compound 0.1 µM): 12.6%
- viability, T/C (second compound 0.3 µM, first compound 0.316 µM): 7.82%
- viability, T/C (second compound 0.3 µM, first compound 1 µM): 3.72%

Structure (SMILES): CCc1c2c(nc3ccc(O)cc13)-c1cc3c(c(=O)n1C2)COC(=O)[C@]3(O)CC + CCn1c(-c2cc(N3CCN(C)CC3)cnc2C(C)OC)c2c3cc(ccc31)-c1csc(n1)CC(NC(=O)C1CC1C)C(=O)N1CCCC(N1)C(=O)OCC(C)(C)C2
- IC50 (second compound 0.000949 µM): 1.49 nM
- IC50 (second compound 0.003 µM): 0.963 nM
- IC50 (second compound 0.00949 µM): < 0.949 nM
- IC50 (second compound 0.03 µM): < 0.949 nM
- IC50 (second compound 0.0949 µM): < 0.949 nM
- IC50 (second compound 0.3 µM): < 0.949 nM
- viability, T/C (second compound 0.000949 µM, first compound 0.000949 µM): 68.4%
- viability, T/C (second compound 0.000949 µM, first compound 0.003 µM): 21.8%
- viability, T/C (second compound 0.000949 µM, first compound 0.00949 µM): 4.84%
- viability, T/C (second compound 0.000949 µM, first compound 0.03 µM): 2.16%
- viability, T/C (second compound 0.000949 µM, first compound 0.0949 µM): 1.13%
- viability, T/C (second compound 0.000949 µM, first compound 0.3 µM): 0.96%
- viability, T/C (second compound 0.003 µM, first compound 0.000949 µM): 50.8%
- viability, T/C (second compound 0.003 µM, first compound 0.003 µM): 20.9%
- viability, T/C (second compound 0.003 µM, first compound 0.00949 µM): 5.17%
- viability, T/C (second compound 0.003 µM, first compound 0.03 µM): 1.82%
- viability, T/C (second compound 0.003 µM, first compound 0.0949 µM): 1.45%
- viability, T/C (second compound 0.003 µM, first compound 0.3 µM): 1.05%
- viability, T/C (second compound 0.00949 µM, first compound 0.000949 µM): 38%
- viability, T/C (second compound 0.00949 µM, first compound 0.003 µM): 17.9%
- viability, T/C (second compound 0.00949 µM, first compound 0.00949 µM): 5.27%
- viability, T/C (second compound 0.00949 µM, first compound 0.03 µM): 2.03%
- viability, T/C (second compound 0.00949 µM, first compound 0.0949 µM): 2.15%
- viability, T/C (second compound 0.00949 µM, first compound 0.3 µM): 0.92%
- viability, T/C (second compound 0.03 µM, first compound 0.000949 µM): 18.9%
- viability, T/C (second compound 0.03 µM, first compound 0.003 µM): 15.3%
- viability, T/C (second compound 0.03 µM, first compound 0.00949 µM): 5.86%
- viability, T/C (second compound 0.03 µM, first compound 0.03 µM): 2.53%
- viability, T/C (second compound 0.03 µM, first compound 0.0949 µM): 1.38%
- viability, T/C (second compound 0.03 µM, first compound 0.3 µM): 0.97%
- viability, T/C (second compound 0.0949 µM, first compound 0.000949 µM): 14.2%
- viability, T/C (second compound 0.0949 µM, first compound 0.003 µM): 13.4%
- viability, T/C (second compound 0.0949 µM, first compound 0.00949 µM): 5.71%
- viability, T/C (second compound 0.0949 µM, first compound 0.03 µM): 2.6%
- viability, T/C (second compound 0.0949 µM, first compound 0.0949 µM): 1.4%
- viability, T/C (second compound 0.0949 µM, first compound 0.3 µM): 1.46%
- viability, T/C (second compound 0.3 µM, first compound 0.000949 µM): 13.5%
- viability, T/C (second compound 0.3 µM, first compound 0.003 µM): 11.7%
- viability, T/C (second compound 0.3 µM, first compound 0.00949 µM): 5.29%
- viability, T/C (second compound 0.3 µM, first compound 0.03 µM): 2.41%
- viability, T/C (second compound 0.3 µM, first compound 0.0949 µM): 1.96%
- viability, T/C (second compound 0.3 µM, first compound 0.3 µM): 0.79%
